According to patent publication US8372831B2, “Isoxazoline linked pyrrolo[2,1-c][1,4]benzodiazepine hybrids as potential anticancer agents and the process for preparation thereof” (Council of Scientific & Industrial Research, priority 2008, dated 2013):

Tested on: duplex-form calf thymus DNA (CT-DNA)
Assay: Thermal denaturation studies with calf thymus DNA
Assay type: binding
Details: [PBD]:[DNA] molar ratio 1:5, CT-DNA 100 μM, ligand 20 μM, pH 7.00
Method: Compounds have been subjected to thermal denaturation studies with duplex-form calf thymus DNA (CT-DNA) using a modification of a reported procedure. Working solutions in aqueous buffer (10 mM NaH2PO4/Na2HPO4, 1 mM Na2EDTA, pH 7.00+0.01) containing CT-DNA (100 (μm in phosphate) and the PBD (20(μm) have been prepared by addition of concentrated PBD solutions in DMSO to obtain a fixed [PBD]/[DNA] molar ratio of 1:5. The DNA-PBD solutions have been incubated at 37° C. for 0 and 18 hrs prior to analysis. Samples have been monitored at 260 nm using a Beckman DU-800 spectrophotometer fitted with high performance temperature controller, and heated at 1° C. min^−1 in the 40-110° C. range. DNA helix→coil transition temperatures (Tm) have been obtained from the maxima in the d(A260)/d T derivative plots. Drug-induced alterations in DNA melting behavior are given by: ΔTm=Tm(DNA+PBD)−Tm(DNA alone), where the Tm value for the PBD-free CT-DNA is 68.5±0.01.
The DNA-binding for these novel C8-linked isoxazoline-PBD hybrids has been examined by thermal denaturation studies using calf thymus CT-DNA. […] Data for 5a-c, 9b and 9g and DC-81 are included in Table 4 for comparison.

Row | SMILES | ΔTm after incubation at 37° C. for 0 hrs | ΔTm after incubation at 37° C. for 18 hrs
1 | COc1cc(C2=NOC(c3cc(OC)c(OC)c(OC)c3)C2)ccc1OCCCOc1cc2c(cc1OC)C(=O)N1CCC[C@H]1C=N2 (stereo partly drawn) [Compound 5a, (11aS)-7-(methyloxy)-8-(3-[(2-(methyloxy)-4-5-[3,4,5-tri(methyloxy)phenyl]-4-,5-dihydro-3-isoxazolylphenyl)oxy]propyloxy)-2,3,5,11a-tetrahydro-1H benzo[e]pyrrolo[1,2-a][1,4]diazepi-5-one] | 3.9 °C | 6.0 °C
2 | COc1cc(C2=NOC(c3cc(OC)c(OC)c(OC)c3)C2)ccc1OCCCCCOc1cc2c(cc1OC)C(=O)N1CCC[C@H]1C=N2 (stereo partly drawn) [Compound 5c, (11aS)-7-(methyloxy)-8-(5-[(2-(methyloxy)-4-5-[3,4,5-tri(methyloxy)phenyl]-4,5-dihydro-3-isoxazolylphenyl)oxy]pentyloxy)-2,3,5,11a-tetrahydro-1H benzo[e]pyrrolo[1,2-a][1,4]diazepi-5-one] | 7.0 °C | 8 °C
3 | COc1cc2c(cc1OCCCCCOc1c(OC)cc(C3CC(c4ccc(OC)c(OC)c4OC)=NO3)cc1OC)N=C[C@@H]1CCCN1C2=O (stereo partly drawn) [Compound 9g, (11aS)-8-(5-[(2,6-di(methyloxy)-4-3-[2,3,4-tri(methyloxy)phenyl]-4,5-dihydro-5-isoxazolylphenyl)oxy]pentyloxy)-7-(methyloxy)-2,3,5,11a-tetrahydro-1H-benzo[e]pyrrolo[1,2-a][1,4]diazepin-5-one] | 1.4 °C | 2.1 °C
4 | COc1cc2c(cc1O)N=CC1CCCN1C2=O (centres unmarked) [DC-81, reference compound] | 0.3 °C | 0.7 °C
